Results as given in patent US10766903B2 (ALMAC DISCOVERY LIMITED, priority 2016, dated 2020).

molecular target: USP7 (Homo sapiens (Human), UniProt Q93009); assay: USP7 fluorescence polarisation (FP) biochemical assay, ubiquitin-Lys-TAMRA substrate; conditions: Table 4, biochemical assay; average of at least duplicate experiments; read-out: USP7 IC50
Outline: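 Full-length His6-USP7 (2.5 nM) incubated ± inhibitor (8-point dilutions, 200 to 0.1 μM before addition) in 50 mM HEPES pH 7.2, 150 mM NaCl, 0.5 mM EDTA, 5 mM DTT, 0.05% BSA, 0.05% CHAPS. Ubiquitin-Lys-TAMRA cleavage followed by FP (ex 530/em 575 nm) every 15 min for 1.5 h; normalised to no-compound control.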

USP7, sequence (Q93009 whole entry): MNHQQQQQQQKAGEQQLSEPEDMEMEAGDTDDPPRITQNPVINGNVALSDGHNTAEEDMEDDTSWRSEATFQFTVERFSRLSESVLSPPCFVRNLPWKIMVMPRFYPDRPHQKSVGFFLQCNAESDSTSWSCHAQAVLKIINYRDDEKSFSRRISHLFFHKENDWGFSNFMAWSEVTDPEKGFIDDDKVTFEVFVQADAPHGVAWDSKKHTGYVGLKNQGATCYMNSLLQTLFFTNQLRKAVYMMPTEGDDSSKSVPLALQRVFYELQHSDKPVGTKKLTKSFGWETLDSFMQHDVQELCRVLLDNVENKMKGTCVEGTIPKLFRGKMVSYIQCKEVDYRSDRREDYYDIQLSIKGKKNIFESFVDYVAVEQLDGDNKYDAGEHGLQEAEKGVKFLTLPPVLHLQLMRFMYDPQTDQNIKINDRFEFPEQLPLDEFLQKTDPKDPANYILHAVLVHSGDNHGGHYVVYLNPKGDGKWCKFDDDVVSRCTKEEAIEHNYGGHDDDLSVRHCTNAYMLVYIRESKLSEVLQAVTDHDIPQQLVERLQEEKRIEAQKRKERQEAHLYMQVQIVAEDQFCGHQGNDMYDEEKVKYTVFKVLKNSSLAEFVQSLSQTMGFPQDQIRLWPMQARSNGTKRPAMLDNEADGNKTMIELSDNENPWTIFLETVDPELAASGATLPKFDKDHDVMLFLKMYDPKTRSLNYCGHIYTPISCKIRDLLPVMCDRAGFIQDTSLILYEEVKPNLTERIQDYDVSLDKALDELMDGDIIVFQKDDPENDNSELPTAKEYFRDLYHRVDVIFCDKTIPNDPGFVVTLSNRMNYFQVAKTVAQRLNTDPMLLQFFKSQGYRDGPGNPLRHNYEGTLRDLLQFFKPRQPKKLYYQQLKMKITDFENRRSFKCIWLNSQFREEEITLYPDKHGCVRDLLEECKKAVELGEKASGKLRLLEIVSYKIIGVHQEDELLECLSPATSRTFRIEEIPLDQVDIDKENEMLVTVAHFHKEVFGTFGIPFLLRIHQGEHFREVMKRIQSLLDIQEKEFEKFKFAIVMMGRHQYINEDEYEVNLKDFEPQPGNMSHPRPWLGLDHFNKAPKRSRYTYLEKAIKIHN

Row | SMILES | IC50
1 | Cn1nc2c(=O)n(CC3(O)CCN(C(=O)C[C@H](c4ccccc4)C(F)(F)F)CC3)cnc2c1-c1ccc([C@H](N)C(F)(F)F)cc1 [Example 119, 3-(4-((S)-1-Amino-2,2,2-trifluoroethyl)phenyl)-6-((4-hydroxy-1-((R)-4,4,4-trifluoro-3-phenylbutanoyl)piperidin-4-yl)methyl)-2-methyl-2H-pyrazolo[4,3-d]pyrimidin-7(6H)-one] | < 250 nM
2 | CCn1nc2c(=O)n(CC3(O)CCN(C(=O)C[C@H](c4ccccc4)C(F)(F)F)CC3)cnc2c1-c1ccc(CN)cc1 [Example 120] | < 250 nM
3 | C[C@H](CC(=O)N1CCC(O)(Cn2cnc(N(CCN3CCCC3)c3ccccc3)cc2=O)CC1)c1ccccc1 [Example 121, (R)-3-((4-Hydroxy-1-(3-phenylbutanoyl)piperidin-4-yl)methyl)-6-(phenyl(2-(pyrrolidin-1-yl)ethyl)amino)pyrimidin-4(3H)-one, Formic Acid] | 1000 to 200000 nM
4 | CN1CC=C(c2c3ncn(CC4(O)CCN(C(=O)C[C@H](c5ccccc5)C(F)(F)F)CC4)c(=O)c3nn2C)CC1 [Example 130, (R)-6-((4-Hydroxy-1-(4,4,4-trifluoro-3-phenylbutanoyl)piperidin-4-yl)methyl)-2-methyl-3-(1-methyl-1,2,3,6-tetrahydropyridin-4-yl)-2H-pyrazolo[4,3-d]pyrimidin-7(6H)-one] | 1000 to 200000 nM
5 | O=C(CC(C1CC1)C1CC1)N1CCC(O)(Cn2cnc(NCCN3CCCC3)cc2=O)CC1 [Example 133, 3-((1-(3,3-Dicyclopropylpropanoyl)-4-hydroxypiperidin-4-yl)methyl)-6-((2-(pyrrolidin-1-yl)ethyl)amino)pyrimidin-4(3H)-one] | 250 to 999 nM
6 | CN(C)CC#Cc1c2ncn(CC3(O)CCN(C(=O)C[C@H](c4ccccc4)C(F)(F)F)CC3)c(=O)c2nn1C [Example 135, (R)-3-(3-(Dimethylamino)prop-1-yn-1-yl)-6-((4-hydroxy-1-(4,4,4-trifluoro-3-phenylbutanoyl)piperidin-4-yl)methyl)-2-methyl-2H-pyrazolo[4,3-d]pyrimidin-7(6H)-one] | 1000 to 200000 nM
7 | Cn1nc2c(=O)n(CC3(O)CCN(C(=O)C[C@H](c4ccccc4)C(F)(F)F)CC3)cnc2c1-c1ccc(CN2CCOCC2)cc1 [Example 137, (R)-6-((4-Hydroxy-1-(4,4,4-trifluoro-3-phenylbutanoyl)piperidin-4-yl)methyl)-2-methyl-3-(4-(morpholinomethyl)phenyl)-2H-pyrazolo[4,3-d]pyrimidin-7(6H)-one] | < 250 nM
8 | C[C@H](CC(=O)N1CCC(O)(Cn2cnc3c(-c4ccccc4)cnn3c2=O)CC1)c1ccccc1 [Example 139, (R)-3-((4-Hydroxy-1-(3-phenylbutanoyl)piperidin-4-yl)methyl)-8-phenylpyrazolo[1,5-a][1,3,5]triazin-4(3H)-one] | < 250 nM
9 | CC(=O)NCCNc1cc(=O)n(CC2(O)CCN(C(=O)C[C@@H](C)c3ccccc3)CC2)cn1 [Example 143, (R)-N-(2-((1-((4-hydroxy-1-(3-phenylbutanoyl)piperidin-4-yl)methyl)-6-oxo-1,6-dihydropyrimidin-4-yl)amino)ethyl)acetamide] | 1000 to 200000 nM
10 | C[C@H](CC(=O)N1CCC(O)(Cn2cnc(NCCNc3nccc(C(F)(F)F)n3)cc2=O)CC1)c1ccccc1 [Example 145, (R)-3-((4-hydroxy-1-(3-phenylbutanoyl)piperidin-4-yl)methyl)-6-((2-((4-(trifluoromethyl)pyrimidin-2-yl)amino)ethyl)amino)pyrimidin-4(3H)-one] | 1000 to 200000 nM

Other lines, results leading:

Row | IC50 | SMILES
11 | < 250 nM | Cn1nc2c(=O)n(CC3(O)CCN(C(=O)C[C@H](c4ccccc4)C(F)(F)F)CC3)cnc2c1-c1ccc([C@H](N)C(F)F)cc1 [Example 122, 3-(4-((S)-1-Amino-2,2-difluoroethyl)phenyl)-6-((4-hydroxy-1-((R)-4,4,4-trifluoro-3-phenylbutanoyl)piperidin-4-yl)methyl)-2-methyl-2H-pyrazolo[4,3-d]pyrimidin-7(6H)-one]
12 | < 250 nM | Cn1nc2c(=O)n(CC3(O)CCN(C(=O)C[C@H](c4ccccc4)C(F)(F)F)CC3)cnc2c1-c1ccc(CN)c(C(F)(F)F)c1 [Example 123, (R)-3-(4-(Aminomethyl)-3-(trifluoromethyl)phenyl)-6-((4-hydroxy-1-(4,4,4-trifluoro-3-phenylbutanoyl)piperidin-4-yl)methyl)-2-methyl-2H-pyrazolo[4,3-d]pyrimidin-7(6H)-one]
13 | < 250 nM | Cn1nc2c(=O)n(CC3(O)CCN(C(=O)C[C@H](c4ccccc4)C(F)(F)F)CC3)cnc2c1-c1ccc(C2(N)CC2)cc1 [Example 124, (R)-3-(4-(1-Aminocyclopropyl)phenyl)-6-((4-hydroxy-1-(4,4,4-trifluoro-3-phenylbutanoyl)piperidin-4-yl)methyl)-2-methyl-2H-pyrazolo[4,3-d]pyrimidin-7(6H)-one]
14 | 1000 to 200000 nM | C[C@H](CC(=O)N1CCC(O)(CN2C(=O)Cc3ccccc32)CC1)c1ccccc1 [Example 126, (R)-1-((4-Hydroxy-1-(3-phenylbutanoyl)piperidin-4-yl)methyl)indolin-2-one]
15 | < 250 nM | Cn1nc2c(=O)n(CC3(O)CCN(C(=O)CC(C4CC4)C4CC4)CC3)cnc2c1-c1ccc(CN)cc1 [Example 127, 3-(4-(Aminomethyl)phenyl)-6-((1-(3,3-dicyclopropylpropanoyl)-4-hydroxypiperidin-4-yl)methyl)-2-methyl-2H-pyrazolo[4,3-d]pyrimidin-7(6H)-one]
16 | 250 to 999 nM | O=C(C[C@H](c1ccccc1)C(F)(F)F)N1CCC(O)(Cn2cnc3c(ncn3-c3ccccc3)c2=O)CC1 [Example 128, (R)-1-((4-Hydroxy-1-(4,4,4-trifluoro-3-phenylbutanoyl)piperidin-4-yl)methyl)-9-phenyl-1H-purin-6(9H)-one]
17 | < 250 nM | O=C(C[C@H](c1ccccc1)C(F)F)N1CCC(O)(Cn2cnc3c(ncn3-c3ccccc3)c2=O)CC1 [Example 129, (R)-1-((1-(4,4-Difluoro-3-phenylbutanoyl)-4-hydroxypiperidin-4-yl)methyl)-9-phenyl-1H-purin-6(9H)-one]
18 | 1000 to 200000 nM | CC(=O)N1CCC(O)(Cn2cnc3c(-c4ccccc4)n(C)nc3c2=O)CC1 [Example 131, 6-((1-Acetyl-4-hydroxypiperidin-4-yl)methyl)-2-methyl-3-phenyl-2H-pyrazolo[4,3-d]pyrimidin-7(6H)-one]
19 | 1000 to 200000 nM | CC(=O)N1CCC(O)(Cn2cnc(NCCN3CCCC3)cc2=O)CC1 [Example 132, 3-((1-Acetyl-4-hydroxypiperidin-4-yl)methyl)-6-((2-(pyrrolidin-1-yl)ethyl)amino)pyrimidin-4(3H)-one]
20 | < 250 nM | Cn1nc2c(=O)n(CC3(O)CCN(C(=O)C[C@H](c4ccccc4)C(F)(F)F)CC3)cnc2c1C1=CCCCC1 [Example 134, (R)-3-(Cyclohex-1-en-1-yl)-6-((4-hydroxy-1-(4,4,4-trifluoro-3-phenylbutanoyl)piperidin-4-yl)methyl)-2-methyl-2H-pyrazolo[4,3-d]pyrimidin-7(6H)-one]
21 | 250 to 999 nM | Cn1nc2c(=O)n(CC3(O)CCN(C(=O)CCC4CCC4)CC3)cnc2c1-c1ccc(CN)cc1 [Example 138, 3-(4-(Aminomethyl)phenyl)-6-((1-(3-cyclobutylpropanoyl)-4-hydroxypiperidin-4-yl)methyl)-2-methyl-2H-pyrazolo[4,3-d]pyrimidin-7(6H)-one]
22 | 1000 to 200000 nM | C[C@H](CC(=O)N1CCC(O)(Cn2cnc(N3CCC[C@@H]3CO)cc2=O)CC1)c1ccccc1 [Example 140, 3-((4-hydroxy-1-((R)-3-phenylbutanoyl)piperidin-4-yl)methyl)-6-((R)-2-(hydroxymethyl)pyrrolidin-1-yl)pyrimidin-4(3H)-one]
23 | 1000 to 200000 nM | COCC1CN(c2cc(=O)n(CC3(O)CCN(C(=O)C[C@@H](C)c4ccccc4)CC3)cn2)C1 [Example 141, (R)-3-((4-hydroxy-1-(3-phenylbutanoyl)piperidin-4-yl)methyl)-6-(3-(methoxymethyl)azetidin-1-yl)pyrimidin-4(3H)-one]
24 | 1000 to 200000 nM | C[C@H](CC(=O)N1CCC(O)(Cn2cnc(N3CCC(O)CC3)cc2=O)CC1)c1ccccc1 [Example 144, (R)-3-((4-hydroxy-1-(3-phenylbutanoyl)piperidin-4-yl)methyl)-6-(4-hydroxypiperidin-1-yl)pyrimidin-4(3H)-one]

same assay, conditions: USP7 IC50, Table 4, biochemical assay; average of at least duplicate experiments

Row | SMILES | IC50
25 | Cn1nc2c(=O)n(CC3(O)CCN(C(=O)C[C@H](c4ccccc4)C(F)(F)F)CC3)cnc2c1C1CCCCC1 [Example 136, (R)-3-Cyclohexyl-6-((4-hydroxy-1-(4,4,4-trifluoro-3-phenylbutanoyl)piperidin-4-yl)methyl)-2-methyl-2H-pyrazolo[4,3-d]pyrimidin-7(6H)-one] | 250 to 999 nM
26 | CC(C)NCCNc1cc(=O)n(CC2(O)CCN(C(=O)C[C@@H](C)c3ccccc3)CC2)cn1 [Example 142, (R)-3-((4-hydroxy-1-(3-phenylbutanoyl)piperidin-4-yl)methyl)-6-((2-(isopropylamino)ethyl)amino)pyrimidin-4(3H)-one] | 250 to 999 nM

Continued, values first:

Row | IC50 | SMILES
27 | 250 to 999 nM | Cn1nc2c(=O)n(CC3(O)CCN(C(=O)C[C@H](c4ccccc4)C(F)(F)F)CC3)cnc2c1-c1ccc([C@@H](N)C(F)(F)F)cc1 [Example 118, 3-(4-((R)-1-Amino-2,2,2-trifluoroethyl)phenyl)-6-((4-hydroxy-1-((R)-4,4,4-trifluoro-3-phenylbutanoyl)piperidin-4-yl)methyl)-2-methyl-2H-pyrazolo[4,3-d]pyrimidin-7(6H)-one]
28 | 250 to 999 nM | Cc1ccc([C@@H](CC(=O)N2CCC(O)(Cn3cnc4c(-c5ccc(CN)cc5)n(C)nc4c3=O)CC2)C(F)(F)F)s1 [Example 125, (S)-3-(4-(Aminomethyl)phenyl)-6-((4-hydroxy-1-(4,4,4-trifluoro-3-(5-methylthiophen-2-yl)butanoyl)piperidin-4-yl)methyl)-2-methyl-2H-pyrazolo[4,3-d]pyrimidin-7(6H)-one]
